# From ChEMBL document CHEMBL5046228 (Eur J Med Chem, 2022)
# Tests used:
# HCC827 = assay: Antiproliferative activity against human HCC827 cells expressing EGFR del119 mutant assessed as inhibition in cell viability after 72 hrs by CCK8 assay; type: functional, cell-based; conditions: HCC827, 72 h
# [1] = target: Epidermal growth factor receptor (Homo sapiens, UniProt P00533, C797S/T790M); assay: Inhibition of EGFR T790M/C797S double mutant (unknown origin) using flurogenic substrate in presence of ATP by HTRF assay
# Sequence of Epidermal growth factor receptor (P00533 25-1210 T790M/C797S limits assumed): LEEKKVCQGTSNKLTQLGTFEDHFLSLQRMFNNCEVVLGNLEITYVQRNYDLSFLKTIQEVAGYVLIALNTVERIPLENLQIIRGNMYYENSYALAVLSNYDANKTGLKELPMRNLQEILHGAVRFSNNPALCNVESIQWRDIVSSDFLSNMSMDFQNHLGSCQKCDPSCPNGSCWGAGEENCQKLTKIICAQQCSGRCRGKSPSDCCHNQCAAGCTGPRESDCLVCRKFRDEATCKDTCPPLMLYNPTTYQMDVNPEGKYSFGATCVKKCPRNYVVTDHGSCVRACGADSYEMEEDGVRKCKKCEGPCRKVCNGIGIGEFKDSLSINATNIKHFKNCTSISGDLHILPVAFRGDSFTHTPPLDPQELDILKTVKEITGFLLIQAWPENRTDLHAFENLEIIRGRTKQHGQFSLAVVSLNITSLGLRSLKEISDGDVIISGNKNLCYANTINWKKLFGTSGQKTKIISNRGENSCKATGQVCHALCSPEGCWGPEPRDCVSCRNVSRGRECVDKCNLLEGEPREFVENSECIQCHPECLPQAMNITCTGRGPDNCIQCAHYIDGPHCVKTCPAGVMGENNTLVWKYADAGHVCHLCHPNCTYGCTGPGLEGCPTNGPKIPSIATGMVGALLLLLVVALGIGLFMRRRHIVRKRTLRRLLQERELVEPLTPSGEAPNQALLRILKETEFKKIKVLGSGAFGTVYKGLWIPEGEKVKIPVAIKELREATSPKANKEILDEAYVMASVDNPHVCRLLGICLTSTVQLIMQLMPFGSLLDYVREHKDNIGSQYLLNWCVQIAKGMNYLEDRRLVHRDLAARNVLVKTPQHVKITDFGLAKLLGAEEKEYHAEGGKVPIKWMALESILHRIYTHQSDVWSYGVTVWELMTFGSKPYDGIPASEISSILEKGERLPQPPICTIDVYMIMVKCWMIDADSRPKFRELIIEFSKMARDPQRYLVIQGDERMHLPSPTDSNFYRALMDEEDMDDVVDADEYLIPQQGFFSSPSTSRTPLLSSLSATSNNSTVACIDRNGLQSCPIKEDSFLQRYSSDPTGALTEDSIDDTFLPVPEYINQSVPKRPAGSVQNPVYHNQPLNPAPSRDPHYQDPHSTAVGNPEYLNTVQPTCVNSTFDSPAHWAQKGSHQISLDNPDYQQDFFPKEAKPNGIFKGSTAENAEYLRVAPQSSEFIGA
smiles,measurement,setting,value
C#CCN(C)CCN(C)c1cc(OC)c(Nc2nccc(Nc3cn(C)c4ccccc34)n2)cc1NC(=O)C=C,IC50,HCC827,3.63 nM
same,IC50,[1],4.01 nM
